Target: telomerase enzyme (Homo sapiens, UniProt O14746)
Assay: Flash Plate-based telomerase assay
Type: biochemical
Details: telomerase inhibition, two hours of incubation
Text: The telomerase activity of the compounds of the invention has been evaluated using a Flash Plate-based assay. […] Other methods for determining the inhibitory concentration of a compound of the invention against telomerase can be employed as will be apparent to a person skilled in the art based on the disclosure herein.
Briefly, the assay mixture is costituted by:
telomerase enzyme diluted in a buffer, the composition of which has been selected to maintain the enzyme activity stable along the duration of the assay.
dNTPs, deoxynucleotides 5′-triphosphate.
biotynilated oligo as primer.
increasing concentrations of test compounds/positive control.
After two hours of incubation at […] the telomeric repeats added are evaluated by hybridization in solution with a 3′-labeled short oligonucleotide probe.
The extent of hybridization is then quantitated by transferring the reaction mixture in a streptavidin-coated flash plate, where the binding between biotin and streptavidin occurs.
The telomerase activity is proportional to the radioactivity measured and the inhibitory activity of the compounds is evaluated as IC50 using the Sigma Plot fit program.
With the above-described method, IC50 values of the compounds of the present invention were determined.

Sequence of telomerase enzyme (O14746 whole entry): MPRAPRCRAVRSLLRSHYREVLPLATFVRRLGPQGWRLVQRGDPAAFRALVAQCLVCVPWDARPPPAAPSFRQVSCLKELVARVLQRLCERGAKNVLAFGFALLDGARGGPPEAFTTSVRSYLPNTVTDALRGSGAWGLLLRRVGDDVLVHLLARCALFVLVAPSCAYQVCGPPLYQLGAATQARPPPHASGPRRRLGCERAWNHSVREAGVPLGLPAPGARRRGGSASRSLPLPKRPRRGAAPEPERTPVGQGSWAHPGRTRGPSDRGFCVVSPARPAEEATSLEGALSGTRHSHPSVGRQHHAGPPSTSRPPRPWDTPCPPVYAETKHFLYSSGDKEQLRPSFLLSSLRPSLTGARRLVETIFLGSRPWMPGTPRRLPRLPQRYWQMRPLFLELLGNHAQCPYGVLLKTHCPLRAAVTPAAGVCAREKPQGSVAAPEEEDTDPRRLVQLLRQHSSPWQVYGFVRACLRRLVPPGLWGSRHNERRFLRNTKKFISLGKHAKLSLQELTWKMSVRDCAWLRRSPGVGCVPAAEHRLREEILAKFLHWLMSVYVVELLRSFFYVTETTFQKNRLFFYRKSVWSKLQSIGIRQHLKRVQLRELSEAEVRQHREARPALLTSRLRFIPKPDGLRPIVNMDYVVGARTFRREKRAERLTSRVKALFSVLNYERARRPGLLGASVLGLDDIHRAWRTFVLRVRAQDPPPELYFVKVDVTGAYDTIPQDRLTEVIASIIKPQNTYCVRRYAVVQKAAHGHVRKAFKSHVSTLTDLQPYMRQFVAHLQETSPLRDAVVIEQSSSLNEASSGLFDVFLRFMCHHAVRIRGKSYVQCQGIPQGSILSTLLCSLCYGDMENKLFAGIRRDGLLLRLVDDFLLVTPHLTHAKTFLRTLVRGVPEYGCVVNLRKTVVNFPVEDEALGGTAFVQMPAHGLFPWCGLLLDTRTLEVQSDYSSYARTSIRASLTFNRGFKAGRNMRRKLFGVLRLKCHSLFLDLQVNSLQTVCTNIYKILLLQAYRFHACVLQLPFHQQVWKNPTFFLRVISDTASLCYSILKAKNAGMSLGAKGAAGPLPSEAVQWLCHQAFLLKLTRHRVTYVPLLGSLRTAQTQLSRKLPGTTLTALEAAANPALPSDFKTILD

In the case of `COC(=O)c1ccc(Cn2c(N)nc3ncn(Cc4ccc(C(=O)OC)cc4)c3c2=O)cc1` [compound 13, methyl 4-({2-amino-7-[4-(methoxycarbonyl)benzyl]-6-oxo-6,7-dihydro-1H-purin-1-yl}methyl) benzoate], the IC50 is reported as 12.3 µM.
